# Data taken from PubChem BioAssay AID1347042.
# Tested on: MutuI BL cells, EBV BHLF1 promoter luciferase, 48 h
# Assay: inducers of EBV BHLF1 promoter reporter – cell-based, MutuI Burkitt lymphoma, luciferase, dose response (AID 1347042)
row,Compound,EC50
1,COc1ccccc1NC(=O)N1CCc2c([nH]c3ccc(Cl)cc23)C1c1ccc(C)cc1 (stereo not given),170 nM
2,COc1ccc(C2c3[nH]c4ccc(Cl)cc4c3CCN2C(=O)Nc2ccc(OC)cc2OC)cc1 (stereo not given),113 nM

# Other lines, results leading:
row,EC50,Compound
1,158 nM,COC(=O)c1ccccc1NC(=O)N1CCc2c([nH]c3ccc(Cl)cc23)C1c1ccc(OC)cc1 (stereo not given)
2,576 nM,COC(=O)c1sccc1NC(=O)N1CCc2c([nH]c3ccc(OC)cc23)C1c1ccc(C)cc1 (stereo not given)
3,108 nM,CCOC(=O)c1ccccc1NC(=O)N1CCc2c([nH]c3ccc(OC)cc23)C1c1ccc(C)cc1 (stereo not given)
